Data reported in publication PMC5789083, “Mechanisms driving the antibacterial and antibiofilm properties of Hp1404 and its analogue peptides against multidrug-resistant Pseudomonas aeruginosa” (Scientific Reports, 2018).
Where no end group is shown, it is not given here.

The substances below were run on Pseudomonas aeruginosa and MRPA strains (assay: microbe, parasite or virus in culture). Settings: P. aeruginosa 138 (multidrug-resistant); broth micro-dilution, 37 °C, 18–24 h, triplicate.
Assay type: cell-based
From the text: Gram-negative (Pseudomonas aeruginosa ATCC 27853) bacterial strains were obtained from the ATCC (American Type Culture Collection; Manassas, VA, USA). Multidrug-resistant strains (Pseudomonas aeruginosa 138, 431, 434, 557, 559, 778, 1034, 1162, 3290, 3399, 3592, 3904, 4007, 4319, 4891, 5018, and 671973) were obtained from the Chonnam National University Hospital (Gwangju, South Korea).
We examined the activity of each peptide against both pseudomonas aeruginosa and multidrug-resistant strains. The minimal inhibitory concentrations (MICs) of peptides were determined using the broth micro-dilution assay as described previously. Briefly, bacterial strains were cultivated with shaking overnight at 37 °C. The next day, they were diluted to a density of 2 × 10^5 CFU/mL with growth medium. Peptides were serially diluted with 10 mM sodium phosphate buffer. 50 µL bacterial aliquots were mixed with an equal volume of peptide solution, and incubated at 37 °C for 18–24 h. Inhibition of bacterial growth was determined by measuring the absorbance at 600 nm using a Versa Max microplate reader (Molecular Devices, Sunnyvale, CA, USA). The test was performed in triplicate.
Substance Buforin2 [reference compound] has an MIC of 12.5 µM. Work on ILGKLWEGVKSI-NH2 [Hp1404-T1] yielded an MIC of over 25 µM. ILKKLWEGVKSI-NH2 [Hp1404-T1a] showed an MIC of over 25 µM.

Same assay, conditions: P. aeruginosa 431 (multidrug-resistant); broth micro-dilution, 37 °C, 18–24 h, triplicate
Buforin2 [reference compound] gave an MIC of 6.25 µM. In the case of ILGKLWEGVKSI-NH2 [Hp1404-T1], the MIC is reported as over 25 µM. ILKKLWEGVKSI-NH2 [Hp1404-T1a] gave an MIC of 25 µM.

Same assay, conditions: P. aeruginosa 434 (multidrug-resistant); broth micro-dilution, 37 °C, 18–24 h, triplicate
Buforin2 [reference compound] gave an MIC of 6.25 µM. ILGKLWEGVKSI-NH2 [Hp1404-T1] gave an MIC of over 25 µM. For ILKKLWEGVKSI-NH2 [Hp1404-T1a], the MIC was 25 µM.

Same assay, conditions: P. aeruginosa 557 (multidrug-resistant); broth micro-dilution, 37 °C, 18–24 h, triplicate
Buforin2 [reference compound] was tested, and the MIC was 6.25 µM. In the case of ILGKLWEGVKSI-NH2 [Hp1404-T1], the MIC is reported as over 25 µM. ILKKLWEGVKSI-NH2 [Hp1404-T1a] gave an MIC of over 25 µM.

Same assay, conditions: P. aeruginosa 559 (multidrug-resistant); broth micro-dilution, 37 °C, 18–24 h, triplicate
Work on Buforin2 [reference compound] yielded an MIC of 12.5 µM. In the case of ILGKLWEGVKSI-NH2 [Hp1404-T1], the MIC is reported as over 25 µM. With ILKKLWEGVKSI-NH2 [Hp1404-T1a] the MIC was over 25 µM.

Same assay, conditions: P. aeruginosa 778 (multidrug-resistant); broth micro-dilution, 37 °C, 18–24 h, triplicate
With Buforin2 [reference compound] the MIC was 12.5 µM. With ILGKLWEGVKSI-NH2 [Hp1404-T1] the MIC was over 25 µM. ILKKLWEGVKSI-NH2 [Hp1404-T1a] gave an MIC of over 25 µM.

Same assay, conditions: P. aeruginosa 1034 (multidrug-resistant); broth micro-dilution, 37 °C, 18–24 h, triplicate
For Buforin2 [reference compound], the MIC was 6.25 µM. Work on ILGKLWEGVKSI-NH2 [Hp1404-T1] yielded an MIC of over 25 µM. Work on ILKKLWEGVKSI-NH2 [Hp1404-T1a] yielded an MIC of over 25 µM.

Same assay, conditions: P. aeruginosa 1162 (multidrug-resistant); broth micro-dilution, 37 °C, 18–24 h, triplicate
With Buforin2 [reference compound] the MIC was 12.5 µM. ILGKLWEGVKSI-NH2 [Hp1404-T1] gave an MIC of over 25 µM. ILKKLWEGVKSI-NH2 [Hp1404-T1a] was tested, and the MIC was over 25 µM.

Same assay, conditions: P. aeruginosa 3290 (multidrug-resistant); broth micro-dilution, 37 °C, 18–24 h, triplicate
Buforin2 [reference compound] was tested, and the MIC was 6.25 µM. Work on ILGKLWEGVKSI-NH2 [Hp1404-T1] yielded an MIC of over 25 µM. ILKKLWEGVKSI-NH2 [Hp1404-T1a] showed an MIC of over 25 µM.

Same assay, conditions: P. aeruginosa 3399 (multidrug-resistant); broth micro-dilution, 37 °C, 18–24 h, triplicate
Buforin2 [reference compound] gave an MIC of 12.5 µM. Substance ILGKLWEGVKSI-NH2 [Hp1404-T1] has an MIC of over 25 µM. ILKKLWEGVKSI-NH2 [Hp1404-T1a] showed an MIC of 25 µM.

Same assay, conditions: P. aeruginosa 3543 (multidrug-resistant); broth micro-dilution, 37 °C, 18–24 h, triplicate
Buforin2 [reference compound] was tested, and the MIC was 12.5 µM. For ILGKLWEGVKSI-NH2 [Hp1404-T1], the MIC was over 25 µM. Substance ILKKLWEGVKSI-NH2 [Hp1404-T1a] has an MIC of over 25 µM.

Same assay, conditions: P. aeruginosa 3592 (multidrug-resistant); broth micro-dilution, 37 °C, 18–24 h, triplicate
Buforin2 [reference compound] gave an MIC of 3.13 µM. Substance ILGKLWEGVKSI-NH2 [Hp1404-T1] has an MIC of over 25 µM. For ILKKLWEGVKSI-NH2 [Hp1404-T1a], the MIC was 12.5 µM.

Same assay, conditions: P. aeruginosa 3904 (multidrug-resistant); broth micro-dilution, 37 °C, 18–24 h, triplicate
With Buforin2 [reference compound] the MIC was 6.25 µM. ILGKLWEGVKSI-NH2 [Hp1404-T1] showed an MIC of over 25 µM. ILKKLWEGVKSI-NH2 [Hp1404-T1a] was tested, and the MIC was 25 µM.

Same assay, conditions: P. aeruginosa 4007 (multidrug-resistant); broth micro-dilution, 37 °C, 18–24 h, triplicate
Substance Buforin2 [reference compound] has an MIC of 12.5 µM. For ILGKLWEGVKSI-NH2 [Hp1404-T1], the MIC was over 25 µM. ILKKLWEGVKSI-NH2 [Hp1404-T1a] gave an MIC of over 25 µM.

Same assay, conditions: P. aeruginosa 4319 (multidrug-resistant); broth micro-dilution, 37 °C, 18–24 h, triplicate
With Buforin2 [reference compound] the MIC was 12.5 µM. With ILGKLWEGVKSI-NH2 [Hp1404-T1] the MIC was over 25 µM. Work on ILKKLWEGVKSI-NH2 [Hp1404-T1a] yielded an MIC of over 25 µM.

Same assay, conditions: P. aeruginosa 4891 (multidrug-resistant); broth micro-dilution, 37 °C, 18–24 h, triplicate
Buforin2 [reference compound] showed an MIC of over 25 µM. With ILGKLWEGVKSI-NH2 [Hp1404-T1] the MIC was over 25 µM. ILKKLWEGVKSI-NH2 [Hp1404-T1a] was tested, and the MIC was 25 µM.

Same assay, conditions: P. aeruginosa 5018 (multidrug-resistant); broth micro-dilution, 37 °C, 18–24 h, triplicate
For Buforin2 [reference compound], the MIC was 12.5 µM. With ILGKLWEGVKSI-NH2 [Hp1404-T1] the MIC was over 25 µM. ILKKLWEGVKSI-NH2 [Hp1404-T1a] was tested, and the MIC was over 25 µM.

Same assay, conditions: P. aeruginosa 671973 (multidrug-resistant); broth micro-dilution, 37 °C, 18–24 h, triplicate
Buforin2 [reference compound] was tested, and the MIC was 3.13 µM. ILGKLWEGVKSI-NH2 [Hp1404-T1] was tested, and the MIC was over 25 µM. Substance ILKKLWEGVKSI-NH2 [Hp1404-T1a] has an MIC of 25 µM.

Same assay, conditions: P. aeruginosa ATCC 27853; broth micro-dilution, 2 × 10^5 CFU/mL, 37 °C, 18–24 h, A600, triplicate
Work on Buforin2 [reference compound] yielded an MIC of 25 µM. ILGKLWEGVKSI-NH2 [Hp1404-T1] showed an MIC of over 25 µM. ILKKLWEGVKSI-NH2 [Hp1404-T1a] was tested, and the MIC was over 25 µM.
